We go through 27 compounds from ChEMBL document CHEMBL3044558, “Structure-activity relationship development of dihaloaryl triazole compounds as insecticides and acaricides. 1. Phenyl thiophen-2-yl triazoles” (2007).

For orientation: mortality means the percentage killed.

The test system of one assay is Spodoptera exigua. The assay can be described thus: Insecticidal activity against Spodoptera exigua second-instar larvae feeded on 400 ppm compound treated lepidopteran diet assessed as insect mortality measured 5 days post compound treatment under green house conditions. Particulars: at 400 ppm. It counts as functional.
Assay [1] has as its system Tetranychus urticae. The assay can be described thus: Insecticidal activity against female Tetranychus urticae (two-spotted spider mite) infested cotton leaf disks followed by 2.5 ppm compound spraying after oviposit assessed as insect mortality measured after 6 days post compound application under green house conditions. It is filed as functional. Particulars: foliar, 144 h.

For assay [2], the system named is Bemisia tabaci.
In a further assay the test system is Heliothis virescens. The assay can be described thus: Insecticidal activity against Heliothis virescens (tobacco budworm) second-instar larvae infested on 400 ppm compound pre-treated cotton cotyledon disk assessed as insect mortality measured 5 days post compound treatment under green house conditions. It is filed as functional.
Assay [3] has as its system Aphis gossypii.
Assay [4] relates to Trichoplusia ni.
For assay [5], the system named is Aphis gossypii. The assay can be described thus: Insecticidal activity against Aphis gossypii (cotton aphid) infested one week old Crookneck squash plants assessed as insect mortality at 50 ppm measured after 3 days post compound application under green house conditions. It counts as functional. To be noted: 72 h.
Assay [6] concerns Bemisia tabaci. As to the kind of experiment: Insecticidal activity against Bemisia tabaci (sweet potato whitefly) second-instar larvae infested five weeks old cotton plants followed by compound 250 ppm compound spraying after insect oviposit assessed as insect mortality measured 13 days post compound treatment under green house conditions. It is filed as functional.
Assay [7] has as its system Tetranychus urticae.
Assay [8] has as its system Trichoplusia ni. As to the kind of experiment: Insecticidal activity against Trichoplusia ni (cabbage looper) second-instar larvae infested on 400 ppm compound pre-treated cabbage leaf disk assessed as insect mortality measured 5 days post compound treatment under green house conditions. It is filed as functional. To be noted: at 400 ppm.

The source made the active and inactive calls. No cut-off for these calls is given here.

`Cc1ccc(-c2cc(Cl)c(-c3nc(-c4c(F)cccc4Cl)nn3C)s2)cc1`: the figures for the mortality in the assay on Spodoptera exigua and in the assay with Heliothis virescens were below 50% and 60%, respectively. In the assay on Tetranychus urticae [1], the mortality at 2.5 ppm turned out to be 90%. The mortality result with Bemisia tabaci [2], in the assay with Aphis gossypii [3] and in the assay with Trichoplusia ni [4] was “inactive” throughout.
Regarding `Cn1nc(-c2c(F)cccc2Cl)nc1-c1sc(-c2ccc(-c3ccccc3)cc2)c(Cl)c1Cl`, the mortality at 50 ppm in the assay on Aphis gossypii [5] was determined as 90%. Besides, the figures for the mortality with Spodoptera exigua, in the assay with Bemisia tabaci [6] and in the assay with Heliothis virescens were 50%, below 50% and 90%, respectively. Moreover, the mortality at 2.5 ppm with Tetranychus urticae [1] was 80%. For the same compound, the mortality result in the assay with Trichoplusia ni [4] was “inactive”.
Take `Cc1cc(-c2cccc(OC(F)(F)F)c2)sc1-c1nc(-c2c(F)cccc2Cl)nn1C`: the mortality with Spodoptera exigua is 80%; in the assay on Bemisia tabaci [6], below 50%; in the assay with Heliothis virescens, 90%; in the assay on Trichoplusia ni [8] it was 90%. The mortality entry with Tetranychus urticae [7] and with Aphis gossypii [3] was “inactive” in each case.
Consider `Cc1cc(C2=CCC(OC(=O)C(F)(F)Br)CC2)sc1-c1nc(-c2c(F)cccc2Cl)nn1C` (stereo unspecified), for which the mortality at 50 ppm with Aphis gossypii [5] is below 50%. The mortality in the assay with Spodoptera exigua is listed as below 50%; in the assay with Heliothis virescens, 90%. Also, the mortality at 2.5 ppm in the assay with Tetranychus urticae [1] was 70%. In the assay on Trichoplusia ni [4], the mortality entry is “inactive”.
As for `Cc1cc(-c2ccncc2)sc1-c1nc(-c2c(F)cccc2Cl)nn1C`, the mortality with Spodoptera exigua was 70%; in the assay with Heliothis virescens, below 50%; in the assay on Trichoplusia ni [8], 90%. The mortality entry with Tetranychus urticae [7], in the assay on Bemisia tabaci [2] and in the assay on Aphis gossypii [3] was “inactive” each time.
As to `Cc1sc(-c2nc(-c3c(F)cccc3Cl)nn2C)c(C)c1-c1ccc(C(C)C)cc1`, the mortality at 50 ppm in the assay with Aphis gossypii [5] is below 50%. Further, the mortality in the assay on Spodoptera exigua and in the assay with Heliothis virescens was 80% in each case. The mortality at 2.5 ppm in the assay with Tetranychus urticae [1] amounted to 90%. Moreover, the mortality entry with Bemisia tabaci [2] and with Trichoplusia ni [4] was “inactive” throughout.
Consider `CCOc1ccc(-c2c(C)sc(-c3nc(-c4c(F)cccc4Cl)nn3C)c2C)cc1`, for which, in the assay with Aphis gossypii [5], the mortality at 50 ppm is below 50%. The mortality with Spodoptera exigua is recorded as 80%; with Bemisia tabaci [6], below 50%; in the assay with Heliothis virescens, 70%. In the assay with Tetranychus urticae [1], the mortality at 2.5 ppm was below 50%. For the same compound, the mortality result with Trichoplusia ni [4] was “inactive”.
In the case of `Cc1cc(-c2ccc3c(c2)OCCO3)sc1-c1nc(-c2c(F)cccc2Cl)nn1C`, the mortality with Spodoptera exigua is 80%; in the assay on Heliothis virescens, 90%; in the assay with Trichoplusia ni [8], 80%. In addition, the mortality at 2.5 ppm in the assay on Tetranychus urticae [1] turned out to be 90%. For the same compound, the mortality result with Bemisia tabaci [2] and in the assay on Aphis gossypii [3] was “inactive” throughout.
For `Cn1nc(-c2c(F)cccc2Cl)nc1-c1sc(-c2ccc(OC(F)(F)F)cc2)c(Cl)c1Cl`, the mortality turned out to be 70% in the assay with Spodoptera exigua, 70% in the assay on Bemisia tabaci [6], 60% in the assay on Heliothis virescens and 90% in the assay on Trichoplusia ni [8]. The mortality result in the assay on Tetranychus urticae [7] and with Aphis gossypii [3] was “inactive” each time.
`CCOc1ccc(-c2cc(Cl)c(-c3nc(-c4c(F)cccc4Cl)nn3C)s2)cc1`: the results for the mortality with Spodoptera exigua, in the assay on Heliothis virescens and in the assay with Trichoplusia ni [8] were 80%, 60% and 90%, respectively. In the assay on Tetranychus urticae [1], the mortality at 2.5 ppm came out at 90%. The mortality entry in the assay with Bemisia tabaci [2] and with Aphis gossypii [3] was “inactive” throughout.
As for `Cc1cc(C2(O)CCC(=O)CC2)sc1-c1nc(-c2c(F)cccc2Cl)nn1C`, the mortality in the assay on Spodoptera exigua, in the assay with Heliothis virescens and in the assay on Trichoplusia ni [8] was below 50% in each case. Also, the mortality entry in the assay with Tetranychus urticae [7], in the assay with Bemisia tabaci [2] and in the assay with Aphis gossypii [3] was “inactive” throughout.
Regarding `Cc1c(-c2ccc(OC(F)(F)C(F)Br)cc2)sc(-c2nc(-c3c(F)cccc3Cl)nn2C)c1C` (stereo unspecified), in the assay on Aphis gossypii [5], the mortality at 50 ppm is below 50%. The values for the mortality in the assay on Spodoptera exigua, with Bemisia tabaci [6] and with Heliothis virescens were 70%, 80% and 90%, respectively. The mortality at 2.5 ppm in the assay on Tetranychus urticae [1] came to 90%. Moreover, the mortality result with Trichoplusia ni [4] is “inactive”.
On to `Cn1nc(-c2c(F)cccc2Cl)nc1-c1sc(-c2ccc(C(F)(F)F)cc2)c(Br)c1Cl`, for which, in the assay with Aphis gossypii [5], the mortality at 50 ppm is below 50%. The mortality with Spodoptera exigua and in the assay with Heliothis virescens was 90% in each case. In the assay with Tetranychus urticae [1], the mortality at 2.5 ppm was 90%. Moreover, the mortality entry in the assay with Bemisia tabaci [2] and with Trichoplusia ni [4] was “inactive” in each case.
For `Cc1cc(-c2ccc3c(c2)COC3)sc1-c1nc(-c2c(F)cccc2Cl)nn1C`, the mortality in the assay on Spodoptera exigua turned out to be 60%; in the assay with Heliothis virescens it was 90%; with Trichoplusia ni [8] it was 70%. Besides, in the assay with Tetranychus urticae [1], the mortality at 2.5 ppm stood at 80%. Further, the mortality result in the assay with Bemisia tabaci [2] and with Aphis gossypii [3] was “inactive” in each case.
Consider `CCOc1cccc(-c2cc(C)c(-c3nc(-c4c(F)cccc4Cl)nn3C)s2)c1`, for which the mortality was 80% in the assay on Spodoptera exigua, below 50% in the assay on Heliothis virescens and below 50% with Trichoplusia ni [8]. The mortality at 2.5 ppm in the assay on Tetranychus urticae [1] worked out at 70%. For the same compound, the mortality entry with Bemisia tabaci [2] and in the assay with Aphis gossypii [3] was “inactive” in each case.
With `Cn1nc(-c2c(F)cccc2Cl)nc1-c1sc(-c2ccc(Br)cc2)c(Cl)c1Cl`, the mortality with Spodoptera exigua came to 70%; with Bemisia tabaci [6], 50%; in the assay with Heliothis virescens, 90%. In the assay on Tetranychus urticae [1], the mortality at 2.5 ppm came out at 90%. For the same compound, the mortality result in the assay with Aphis gossypii [3] and in the assay with Trichoplusia ni [4] was “inactive” in each case.
Take `Cc1cc(Oc2ncc(C(F)(F)F)cc2Cl)sc1-c1nc(-c2c(F)cccc2Cl)nn1C`: the mortality at 50 ppm in the assay with Aphis gossypii [5] was found to be 90%. Also, the mortality was found to be 70% in the assay on Spodoptera exigua, 90% in the assay with Bemisia tabaci [6] and 90% in the assay on Heliothis virescens. Further, the mortality at 2.5 ppm with Tetranychus urticae [1] was found to be 90%. In addition, the mortality result with Trichoplusia ni [4] was “inactive”.
Take `Cc1c(-c2ccc(O)cc2)csc1-c1nc(-c2c(F)cccc2Cl)nn1C`: the mortality in the assay with Spodoptera exigua and in the assay with Heliothis virescens was below 50% each time. Also, the mortality entry in the assay on Tetranychus urticae [7], with Bemisia tabaci [2], with Aphis gossypii [3] and with Trichoplusia ni [4] was “inactive” each time.
With `Cc1cc(-c2cc(Br)cc(Br)c2)sc1-c1nc(-c2c(F)cccc2Cl)nn1C`, the mortality in the assay on Spodoptera exigua is reported as 60%; with Heliothis virescens it was below 50%. Also, the mortality entry in the assay with Tetranychus urticae [7], in the assay on Bemisia tabaci [2], with Aphis gossypii [3] and in the assay with Trichoplusia ni [4] was “inactive” throughout.
With `Cc1cc(C2=CCC(OC(F)(F)C(F)Cl)CC2)sc1-c1nc(-c2c(F)cccc2Cl)nn1C` (stereo unspecified), in the assay on Aphis gossypii [5], the mortality at 50 ppm was 90%. In addition, the figures for the mortality with Spodoptera exigua, in the assay on Bemisia tabaci [6] and in the assay with Heliothis virescens were 70%, 50% and 90%, respectively. Also, the mortality at 2.5 ppm in the assay with Tetranychus urticae [1] was 90%. Further, the mortality entry in the assay on Trichoplusia ni [4] is “inactive”.
As for `Cc1ccc(-c2sc(-c3nc(-c4c(F)cccc4Cl)nn3C)c(Cl)c2Cl)cc1`, the results for the mortality in the assay with Spodoptera exigua, in the assay on Bemisia tabaci [6] and in the assay on Heliothis virescens were 70%, 70% and 50%, respectively. The mortality at 2.5 ppm in the assay on Tetranychus urticae [1] is 90%. Further, the mortality entry in the assay on Aphis gossypii [3] and in the assay with Trichoplusia ni [4] was “inactive” in each case.
`Cn1nc(-c2c(F)cccc2Cl)nc1-c1sc(-c2ccc(C(C)(C)C)cc2)c(Cl)c1Cl`: the mortality at 50 ppm in the assay with Aphis gossypii [5] came out at 80%. The mortality in the assay with Spodoptera exigua is given as 50%; with Bemisia tabaci [6] it was below 50%; in the assay with Heliothis virescens, below 50%. For the same compound, the mortality at 2.5 ppm in the assay on Tetranychus urticae [1] is 60%. Moreover, in the assay on Trichoplusia ni [4], the mortality result is “inactive”.
For `Cc1c(-c2ccc(C(C)C)cc2)csc1-c1nc(-c2c(F)cccc2Cl)nn1C`, the mortality in the assay with Spodoptera exigua is on record as 80%; with Heliothis virescens it was 90%; with Trichoplusia ni [8], 50%. Also, the mortality at 2.5 ppm in the assay with Tetranychus urticae [1] came out at 90%. In addition, the mortality result in the assay on Bemisia tabaci [2] and in the assay on Aphis gossypii [3] was “inactive” throughout.
In the case of `Cc1c(-c2nc(-c3c(F)cccc3Cl)nn2C)sc(Br)c1-c1ccc(OC(F)(F)C(F)Br)cc1` (stereo unspecified), the mortality at 50 ppm in the assay on Aphis gossypii [5] is below 50%. Besides, the mortality in the assay on Spodoptera exigua is listed as 80%; in the assay on Bemisia tabaci [6] it was below 50%; in the assay on Heliothis virescens, 90%. Moreover, the mortality at 2.5 ppm in the assay with Tetranychus urticae [1] is 90%. In addition, the mortality entry with Trichoplusia ni [4] is “inactive”.
Regarding `Cc1c(-c2ccc(OC(F)(F)C(F)Br)cc2)csc1-c1nc(-c2c(F)cccc2Cl)nn1C` (stereo unspecified), in the assay with Aphis gossypii [5], the mortality at 50 ppm was found to be 80%. The mortality in the assay with Spodoptera exigua, with Bemisia tabaci [6] and in the assay with Heliothis virescens was 90% in each case. In addition, the mortality at 2.5 ppm with Tetranychus urticae [1] was found to be 90%. For the same compound, in the assay on Trichoplusia ni [4], the mortality entry is “inactive”.
Take `CCOc1ccc(-c2cc(C)c(-c3nc(-c4c(F)cccc4Cl)nn3C)s2)cc1`: the mortality is 80% with Spodoptera exigua, below 50% in the assay with Bemisia tabaci [6] and 60% with Heliothis virescens. Besides, in the assay on Tetranychus urticae [1], the mortality at 2.5 ppm came out at 90%. In addition, the mortality entry with Aphis gossypii [3] and with Trichoplusia ni [4] was “inactive” in each case.
With `Cc1sc(-c2nc(-c3c(F)cccc3Cl)nn2C)c(C)c1-c1ccc(C(F)(F)F)cc1`, the mortality at 50 ppm with Aphis gossypii [5] was below 50%. Also, the mortality came out at 90% in the assay with Spodoptera exigua, 60% with Bemisia tabaci [6] and 60% in the assay on Heliothis virescens. The mortality at 2.5 ppm in the assay on Tetranychus urticae [1] was found to be 90%. For the same compound, in the assay with Trichoplusia ni [4], the mortality entry was “inactive”.
